Measurements reported in patent publication US20220306626A1, “CRYSTALLINE FORM OF A DIHYDROCHLORIDE SALT OF A JAK INHIBITOR COMPOUND” (Theravance Biopharma R&D IP, LLC, priority 2021, published 2022).
Like-named read-outs stand apart in the source and are kept apart here. Each block holds one compound with its values, some of them ahead of it.

Key:
JAK2 = JAK2 (Homo sapiens, UniProt O60674); conditions: cited from earlier work
TYK2 = TYK2 (Homo sapiens, UniProt P29597); conditions: cited from earlier work
TYK2, sequence (P29597 whole entry): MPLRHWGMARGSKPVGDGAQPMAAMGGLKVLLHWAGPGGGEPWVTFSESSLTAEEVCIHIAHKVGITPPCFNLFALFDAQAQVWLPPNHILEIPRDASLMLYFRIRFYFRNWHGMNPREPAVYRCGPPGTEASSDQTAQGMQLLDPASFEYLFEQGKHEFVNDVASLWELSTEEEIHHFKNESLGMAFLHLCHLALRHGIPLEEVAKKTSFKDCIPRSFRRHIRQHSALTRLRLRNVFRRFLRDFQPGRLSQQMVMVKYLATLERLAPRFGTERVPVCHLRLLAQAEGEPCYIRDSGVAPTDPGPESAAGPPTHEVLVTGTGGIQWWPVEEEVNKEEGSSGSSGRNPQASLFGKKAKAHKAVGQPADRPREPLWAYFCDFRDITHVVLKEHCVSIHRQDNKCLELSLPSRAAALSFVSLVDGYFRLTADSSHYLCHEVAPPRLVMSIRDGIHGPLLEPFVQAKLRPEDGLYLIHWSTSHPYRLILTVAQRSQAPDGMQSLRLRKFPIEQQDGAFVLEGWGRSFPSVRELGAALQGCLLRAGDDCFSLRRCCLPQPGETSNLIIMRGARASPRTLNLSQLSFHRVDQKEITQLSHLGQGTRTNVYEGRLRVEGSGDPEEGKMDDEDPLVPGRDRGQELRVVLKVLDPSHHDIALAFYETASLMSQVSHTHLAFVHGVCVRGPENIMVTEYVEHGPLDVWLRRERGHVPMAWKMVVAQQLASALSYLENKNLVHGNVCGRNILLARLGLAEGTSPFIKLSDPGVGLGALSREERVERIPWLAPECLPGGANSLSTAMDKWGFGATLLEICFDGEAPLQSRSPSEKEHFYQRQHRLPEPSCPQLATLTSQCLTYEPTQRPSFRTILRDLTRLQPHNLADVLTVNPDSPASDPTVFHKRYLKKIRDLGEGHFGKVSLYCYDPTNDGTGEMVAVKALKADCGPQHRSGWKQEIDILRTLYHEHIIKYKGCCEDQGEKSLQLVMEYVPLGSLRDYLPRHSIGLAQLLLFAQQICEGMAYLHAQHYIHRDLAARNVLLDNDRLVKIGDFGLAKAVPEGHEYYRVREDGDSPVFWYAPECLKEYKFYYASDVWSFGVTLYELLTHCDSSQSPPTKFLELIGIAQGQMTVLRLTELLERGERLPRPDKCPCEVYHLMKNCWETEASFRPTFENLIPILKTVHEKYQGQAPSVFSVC

[1] = in vivo; cited from earlier work
JAK3 = molecular target: T1, JAK3 (Homo sapiens, UniProt P52333); conditions: cited from earlier work
T1 sequence (P52333 1-1124): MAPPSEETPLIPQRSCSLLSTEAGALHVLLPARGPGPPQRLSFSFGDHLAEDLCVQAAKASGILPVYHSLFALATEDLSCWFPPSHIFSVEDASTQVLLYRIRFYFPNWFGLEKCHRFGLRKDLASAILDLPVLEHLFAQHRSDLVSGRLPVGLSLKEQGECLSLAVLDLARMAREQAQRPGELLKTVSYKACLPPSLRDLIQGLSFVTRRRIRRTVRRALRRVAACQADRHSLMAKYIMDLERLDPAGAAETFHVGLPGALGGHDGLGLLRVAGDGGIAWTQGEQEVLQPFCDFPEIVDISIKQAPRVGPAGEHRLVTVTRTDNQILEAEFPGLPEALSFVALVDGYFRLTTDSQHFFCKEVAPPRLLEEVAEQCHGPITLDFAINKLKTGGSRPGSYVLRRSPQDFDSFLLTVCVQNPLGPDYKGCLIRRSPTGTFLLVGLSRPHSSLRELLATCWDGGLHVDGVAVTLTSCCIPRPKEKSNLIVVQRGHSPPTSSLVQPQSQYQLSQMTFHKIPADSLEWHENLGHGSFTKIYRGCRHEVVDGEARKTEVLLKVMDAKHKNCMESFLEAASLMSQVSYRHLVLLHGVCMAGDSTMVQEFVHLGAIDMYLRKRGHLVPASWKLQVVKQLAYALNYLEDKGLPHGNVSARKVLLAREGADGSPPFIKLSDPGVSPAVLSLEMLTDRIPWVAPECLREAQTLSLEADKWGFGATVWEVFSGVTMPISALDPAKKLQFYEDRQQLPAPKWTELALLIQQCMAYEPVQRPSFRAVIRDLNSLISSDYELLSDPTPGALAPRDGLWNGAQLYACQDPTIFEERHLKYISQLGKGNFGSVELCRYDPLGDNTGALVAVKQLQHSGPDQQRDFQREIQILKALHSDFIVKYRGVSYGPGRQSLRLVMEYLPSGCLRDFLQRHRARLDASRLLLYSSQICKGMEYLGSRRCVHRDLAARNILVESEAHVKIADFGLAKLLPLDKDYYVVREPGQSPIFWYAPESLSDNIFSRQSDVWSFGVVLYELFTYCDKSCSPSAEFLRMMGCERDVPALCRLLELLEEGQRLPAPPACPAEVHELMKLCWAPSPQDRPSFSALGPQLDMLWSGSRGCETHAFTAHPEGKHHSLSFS

[2] = system: pro-inflammatory and pro-fibrotic cytokines; conditions: cited from earlier work
JAK1 = JAK1 (Homo sapiens, UniProt P23458); conditions: cited from earlier work
JAK1, sequence (P23458 whole entry): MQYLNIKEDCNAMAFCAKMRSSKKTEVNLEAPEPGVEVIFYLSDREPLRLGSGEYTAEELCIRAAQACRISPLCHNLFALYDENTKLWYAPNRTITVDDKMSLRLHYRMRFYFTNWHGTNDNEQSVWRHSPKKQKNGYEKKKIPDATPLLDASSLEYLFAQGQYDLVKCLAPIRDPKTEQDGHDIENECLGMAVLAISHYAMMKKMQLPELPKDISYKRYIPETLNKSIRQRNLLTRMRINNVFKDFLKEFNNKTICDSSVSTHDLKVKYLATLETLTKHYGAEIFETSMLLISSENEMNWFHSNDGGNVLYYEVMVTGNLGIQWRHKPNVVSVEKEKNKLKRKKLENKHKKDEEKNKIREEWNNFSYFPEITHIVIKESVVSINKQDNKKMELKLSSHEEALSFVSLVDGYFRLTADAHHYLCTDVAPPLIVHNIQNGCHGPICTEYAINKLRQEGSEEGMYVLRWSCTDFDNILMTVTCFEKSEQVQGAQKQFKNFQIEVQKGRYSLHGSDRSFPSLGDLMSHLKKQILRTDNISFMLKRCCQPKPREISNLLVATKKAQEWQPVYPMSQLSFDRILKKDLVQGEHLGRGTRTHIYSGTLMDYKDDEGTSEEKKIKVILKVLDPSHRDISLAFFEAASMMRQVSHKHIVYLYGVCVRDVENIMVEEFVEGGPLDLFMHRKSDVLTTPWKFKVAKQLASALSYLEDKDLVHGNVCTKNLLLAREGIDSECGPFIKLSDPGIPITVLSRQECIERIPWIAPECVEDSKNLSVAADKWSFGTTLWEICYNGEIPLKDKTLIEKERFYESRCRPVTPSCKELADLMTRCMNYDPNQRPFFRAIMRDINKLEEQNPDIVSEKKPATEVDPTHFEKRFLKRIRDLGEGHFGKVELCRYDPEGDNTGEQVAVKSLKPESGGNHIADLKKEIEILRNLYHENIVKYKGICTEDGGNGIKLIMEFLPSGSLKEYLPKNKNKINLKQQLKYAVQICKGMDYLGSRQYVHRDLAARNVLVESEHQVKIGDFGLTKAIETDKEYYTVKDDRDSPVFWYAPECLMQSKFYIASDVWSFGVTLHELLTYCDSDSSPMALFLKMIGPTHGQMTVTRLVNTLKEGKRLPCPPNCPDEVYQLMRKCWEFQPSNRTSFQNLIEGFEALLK

[3] = Dynamic moisture sorption (DMS) assessment; type: physicochemical
Protocol: Dynamic moisture sorption (DMS) measurement was performed using a VTI atmospheric microbalance, SGA-100 system (VTI Corp., Hialeah, Fla. 33016). A weighed sample was used and the humidity was at the lowest possible value (close to 0% RH) at the start of the analysis. The DMS analysis consisted of an initial drying step (˜0% RH) for 16 hours, followed by two cycles of sorption and desorption with a scan rate of 5% RH/step over the humidity range of 5% RH to 90% RH. The DMS run was performed isothermally at 25° C.

[4] = Thermogravimetric analysis (TGA); type: physicochemical; conditions: heating rate of 10° C., ambient to 360° C., nitrogen
Protocol: Thermogravimetric analysis (TGA) measurements were performed using a TA Instruments Model Q-50 module equipped with high resolution capability. Data were collected using TA Instruments Thermal Analyst controller and analyzed using TA Instruments Universal Analysis software. A weighed sample was placed onto a platinum pan and scanned with a heating rate of 10° C. from ambient temperature to 360° C. The balance and furnace chambers were purged with nitrogen flow during use. The crystalline form decomposes at an onset temperature of about 285° C.

[5] = Stability study, storage at 40° C. and 75% relative humidity, analysed by HPLC; type: physicochemical
Protocol: Samples of the crystalline form were stored in glass vials with screw caps at 40° C. and 75% relative humidity (RH). At specific intervals, the contents of a representative sample were removed and analyzed by HPLC for assay and chemical purity as shown in Table 3.

[6] = Solubility of the crystalline form in water and Simulated Lung Fluid; type: physicochemical
Protocol: The solubility of the crystalline form was assessed in water and Simulated Lung Fluid (SLF). The crystalline form was dispersed in liquid media in multiple vials to form slurries, with each vial containing about 7.5 mg of the crystalline form and 0.5 mL of the liquid media. The slurries were agitated in a thermo-shaker at 25° C. and samples were collected from different vials at approximately 5, 15, 30, 60 minutes, and 24 hours. At each of the timepoints, the slurries were centrifuged for 10 minutes. The supernatant was collected and centrifuged for another 10 minutes. Solubility at each timepoint is determined by analyzing the compound concentration in the supernatant using HPLC. SLF composition: 0.4% NaCl, 0.02% DPPC in 50 mM phosphate buffer pH 6.9

[7] = T = 3 Months, 40° C. and 75% RH
[8] = T = 6 Months, 40° C. and 75% RH

JAK2, sequence (O60674 whole entry): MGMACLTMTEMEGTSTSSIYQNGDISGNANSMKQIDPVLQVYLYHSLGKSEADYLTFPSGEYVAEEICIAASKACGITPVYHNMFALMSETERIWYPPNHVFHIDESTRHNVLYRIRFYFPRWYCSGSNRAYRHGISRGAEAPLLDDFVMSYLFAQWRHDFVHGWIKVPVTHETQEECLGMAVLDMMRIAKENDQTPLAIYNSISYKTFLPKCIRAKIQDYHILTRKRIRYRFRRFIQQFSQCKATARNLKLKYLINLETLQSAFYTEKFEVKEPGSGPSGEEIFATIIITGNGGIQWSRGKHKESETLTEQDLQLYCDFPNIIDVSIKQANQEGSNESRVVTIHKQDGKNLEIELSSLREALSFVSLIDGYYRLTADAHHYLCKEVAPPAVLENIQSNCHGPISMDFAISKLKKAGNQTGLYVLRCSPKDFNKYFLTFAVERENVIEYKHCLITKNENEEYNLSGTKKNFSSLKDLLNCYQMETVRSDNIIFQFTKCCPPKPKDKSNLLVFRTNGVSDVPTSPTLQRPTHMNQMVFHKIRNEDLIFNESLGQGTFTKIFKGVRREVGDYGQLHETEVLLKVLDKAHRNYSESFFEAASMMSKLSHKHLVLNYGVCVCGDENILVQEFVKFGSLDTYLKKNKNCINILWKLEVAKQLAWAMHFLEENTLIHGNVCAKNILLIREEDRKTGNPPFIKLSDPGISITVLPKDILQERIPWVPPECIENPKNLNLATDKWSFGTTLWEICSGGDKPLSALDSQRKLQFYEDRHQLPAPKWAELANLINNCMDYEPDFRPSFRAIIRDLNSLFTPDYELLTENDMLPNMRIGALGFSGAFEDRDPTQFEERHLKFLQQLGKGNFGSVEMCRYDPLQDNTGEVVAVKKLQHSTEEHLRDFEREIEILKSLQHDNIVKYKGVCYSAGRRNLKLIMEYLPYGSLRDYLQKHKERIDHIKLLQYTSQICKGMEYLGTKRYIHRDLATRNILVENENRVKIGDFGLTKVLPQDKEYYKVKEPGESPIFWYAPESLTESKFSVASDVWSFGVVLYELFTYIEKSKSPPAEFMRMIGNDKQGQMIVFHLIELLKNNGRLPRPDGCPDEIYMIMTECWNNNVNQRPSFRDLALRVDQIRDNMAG

Compound: CCc1cc(O)c(F)cc1-c1ccc2c(-c3nc4c([nH]3)CCN(C3CCN(C)CC3)C4)n[nH]c2c1 [compound 1, 5-ethyl-2-fluoro-4-(3-(5-(1-methylpiperidin-4-yl)-4,5,6,7-tetrahydro-1H-imidazo[4,5-c]pyridin-2-yl)-1H-indazol-6-yl)phenol]
inhibition of JAK2 (in words) (JAK2): potent inhibitor | inhibition of TYK2 (in words) (TYK2): potent inhibitor | lung retention (in words) [1]: significant lung retention | inhibition of JAK3 (in words) (JAK3): potent inhibitor | inhibition of pro-inflammatory and pro-fibrotic cytokines (in words) [2]: potent inhibition | inhibition of JAK1 (in words) (JAK1): potent inhibitor

change in form after two cycles of moisture sorption and desorption ([3]; 5% RH to 90% RH, 25° C.): no change in form | total moisture uptake ([3]; relative humidity between about 5% and about 90%, room temperature (25° C.)): about 0.8% | decomposition onset temperature (TGA) [4]: about 285 °C | Assay % w/w ([5]; T = 0): 85.0 % w/w | HPLC purity % a/a ([5]; T = 0): 98.7 % a/a | Assay % w/w ([5]; T = 1 Week, 40° C. and 75% RH): 86.8 % w/w | HPLC purity % a/a ([5]; T = 1 Week, 40° C. and 75% RH): 98.7 % a/a | Assay % w/w ([5]; T = 2 Weeks, 40° C. and 75% RH): 85.1 % w/w | HPLC purity % a/a ([5]; T = 2 Weeks, 40° C. and 75% RH): 98.7 % a/a | Assay % w/w [5, 7]: 84.5 % w/w | HPLC purity % a/a [5, 7]: 98.7 % a/a | Assay % w/w ([5]; T = 4 Weeks, 40° C. and 75% RH): 86.9 % w/w | HPLC purity % a/a ([5]; T = 4 Weeks, 40° C. and 75% RH): 98.7 % a/a | Assay % w/w [5, 8]: 85.1 % w/w | HPLC purity % a/a [5, 8]: 98.5 % a/a | change in purity or assay ([5]; after 6 months at 40° C. and 75% RH): no significant change | solubility at 30 min ([6]; Simulated Lung Fluid (SLF), fassgf or other biorelevant, thermodynamic from solid, Simulated Lung Fluid pH 6.9, 25° C., 30 minutes): 210 µg/mL | solubility at 24 h ([6]; Simulated Lung Fluid (SLF), pH 6.9, fassgf or other biorelevant, thermodynamic from solid, Simulated Lung Fluid, 25° C., read-out: solubility in SLF): 70 µg/mL | solubility in simulated lung fluid (in words) ([6]; simulated lung fluid): good solubility | solubility at 60 min ([6]; thermodynamic from solid, water, 25° C., 60 minutes): 8900 µg/mL | solubility at 24 h ([6]; thermodynamic from solid, water, 25° C., read-out: solubility in water): 3200 µg/mL | solubility in water (in words) ([6]; water): good solubility
Compound: CCc1cc(O)c(F)cc1-c1ccc2c(-c3nc4c([nH]3)CCN(C3CCN(C)CC3)C4)n[nH]c2c1 [crystalline form, 5-ethyl-2-fluoro-4-(3-(5-(1-methylpiperidin-4-yl)-4,5,6,7-tetrahydro-1H-imidazo[4,5-c]pyridin-2-yl)-1H-indazol-6-yl)phenol, 2HCl Crystalline Form]
